Experimental data reported in ChEMBL document CHEMBL1150546, “Adenosine dialdehyde analogs I: Regioselective synthesis of adenosine monoaldehydes” (Bioorg Med Chem Lett, 1996).
≈ marks a conversion by molar mass, not a printed value.

Legend:
[1] = test system: Vero; assay: cells; conditions: Chlorocebus sabaeus
[2] = target: T1, Adenosylhomocysteinase (Homo sapiens, UniProt P23526); assay: Compound was tested for competitive inhibition against S-adenosyl homocysteine (SAH) hydrolase.
Target sequence in this assay (P23526 whole entry): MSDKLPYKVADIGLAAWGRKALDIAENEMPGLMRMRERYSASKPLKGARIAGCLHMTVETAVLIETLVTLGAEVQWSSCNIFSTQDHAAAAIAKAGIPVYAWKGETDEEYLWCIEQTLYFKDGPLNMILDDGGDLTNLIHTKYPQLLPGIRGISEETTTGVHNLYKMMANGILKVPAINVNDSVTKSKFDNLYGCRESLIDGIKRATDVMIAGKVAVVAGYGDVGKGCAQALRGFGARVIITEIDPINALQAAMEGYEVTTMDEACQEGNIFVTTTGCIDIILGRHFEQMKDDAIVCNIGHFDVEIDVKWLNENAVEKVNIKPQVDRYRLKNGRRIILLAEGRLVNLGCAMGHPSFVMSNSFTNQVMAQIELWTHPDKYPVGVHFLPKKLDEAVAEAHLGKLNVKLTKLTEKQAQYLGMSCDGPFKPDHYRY

[3] = target: T1, Adenosylhomocysteinase; assay: Percentage inhibition of S-adenosyl homocysteine (SAH) hydrolase by the compound at a concentration of 10 uM.
Target sequence in this assay (P23526 2-432 limits assumed): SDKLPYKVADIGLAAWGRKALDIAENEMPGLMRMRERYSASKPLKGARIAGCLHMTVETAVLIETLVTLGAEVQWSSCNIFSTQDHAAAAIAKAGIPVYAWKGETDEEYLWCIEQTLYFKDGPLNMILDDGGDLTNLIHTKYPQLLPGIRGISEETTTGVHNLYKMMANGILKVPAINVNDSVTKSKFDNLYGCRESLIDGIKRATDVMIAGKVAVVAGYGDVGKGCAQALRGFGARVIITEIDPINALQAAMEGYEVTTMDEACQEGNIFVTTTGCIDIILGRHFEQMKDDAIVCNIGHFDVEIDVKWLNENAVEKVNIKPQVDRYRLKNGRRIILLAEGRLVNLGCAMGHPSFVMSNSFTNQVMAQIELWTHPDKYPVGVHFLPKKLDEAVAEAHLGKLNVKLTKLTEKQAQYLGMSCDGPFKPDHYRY

[4] = test system: L929; assay: cells; conditions: Mus musculus
[5] = target: T1, Adenosylhomocysteinase; assay: Compound was tested for inhibition of S-adenosyl homocysteine (SAH) hydrolase.
Target sequence in this assay (P23526 whole entry): as the sequence (P23526 whole entry) above

| Structure (SMILES) | IC50 [1] [µg/mL] | Ki [2] [nM] | inhibition [3] [%] | IC50 [4] [µg/mL] | Ki [5] [nM] |
| --- | --- | --- | --- | --- | --- |
| Nc1ncnc2c1ncn2[C@@H](CO)O[C@@H](C=O)CO | 0.41 (≈ 1.53 µM) | 1900 | 89 | 1.9 (≈ 7.11 µM) | – |
| Nc1ncnc2c1ncn2C(C=O)OC(C=O)CO (stereo unspecified) | 0.41 (≈ 1.55 µM) | – | – | 3.1 (≈ 11.7 µM) | 3.3 |
| Nc1ncnc2c1ncn2[C@@H](C=O)OC(CO)CO | – | – | 4 | – | – |
| C=C(C=O)OC(C=O)n1cnc2c(N)ncnc21 (stereo unspecified) | 11.5 (≈ 46.5 µM) | – | – | 8.9 (≈ 36 µM) | 0.5 |
